Laboratory results taken from PubChem BioAssay (NCI).
Values joined by “and” are separate entries in the source; they are usually repeats but may differ in a detail not shown here. Equal values may be shown once.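 How tested: cells in 96-well plates exposed to compound for 48 hours at five concentrations. Abbreviation: GI50, concentration required for 50% inhibition of growth. TGI is the concentration that stops growth completely.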

How the values were obtained:
Assay in all cases: NCI anticancer screen, dose series, 48 h
[1] = tested on: SR leukemia
[2] = tested on: A498 renal
[3] = tested on: TK-10 renal
[4] = tested on: PC-3 prostate
[5] = tested on: SN12C renal
[6] = tested on: CAKI-1 renal
[7] = tested on: SF-268 CNS
[8] = tested on: MALME-3M melanoma
[9] = tested on: DMS 114 small cell lung
[10] = tested on: LXFL 529 NSCLC

| Structure (SMILES) | GI50 [1] [µM] | TGI [1] | GI50 [2] [µM] | TGI [2] [µM] | GI50 [3] [µM] | TGI [3] | GI50 [4] [µM] | TGI [4] | GI50 [5] | TGI [5] [µM] | GI50 [6] [µM] | TGI [6] | GI50 [7] [µM] | TGI [7] | GI50 [8] | TGI [8] | TGI [9] [µM] | TGI [10] [µM] |
| --- | --- | --- | --- | --- | --- | --- | --- | --- | --- | --- | --- | --- | --- | --- | --- | --- | --- | --- |
| COc1cc(Cl)cc(-c2nn(C(=O)NCCN3CCOCC3)cc2-c2ccncc2)c1 | 5.92 | > 100 µM | 3.1 | 35.2 | 8.46 | > 100 µM | 4.24 | > 100 µM | 10 µM | > 100 | 2.49 | 18.7 µM | 6.69 | > 100 µM | 9.77 µM | > 100 µM |  |  |
| CCN1C(=O)N(CC)C2C1NN=c1s/c(=C\c3cccnc3)c(=O)n12 (stereo unspecified) | 0.132 | > 100 µM | 0.224 | 1.01 | > 100 | > 100 µM | 0.451 | > 100 µM | 0.616 µM | > 100 | 0.346 | > 100 µM | 21.8 | > 100 µM | 0.599 µM | > 100 µM |  |  |
| CCCCCCCCCCCCOC(=S)NCCCC |  | 42.7 µM |  | 43.1 |  | > 100 µM |  |  |  | 45.2 |  |  |  | 58.1 µM |  | 64 µM | 37.7 | > 100 |
| COc1c(CCC[P+](c2ccccc2)(c2ccccc2)c2ccccc2)cc2c(c1OC)OCO2 | 1.07 | 15 µM | 0.0261 | 3.3 | 4.71 | 34.7 µM | 0.961 | 22.4 µM | 2.42 µM | 10.4 | 2.45 | 7.35 µM | 2.04 | 13.1 µM | 0.599 µM | 10.2 µM |  |  |
| COc1cc(C2c3cc4c(cc3[C@@H](Nc3ccc(C#N)cc3)C3COC(=O)[C@H]23)OCO4)cc(OC)c1O (stereo partly specified) | 0.468 | 50 µM and > 100 µM |  | 11.4 | 1.62 | 17.4 µM and 4.49 µM | 2.81 | 50 µM and > 100 µM | 1.91 µM and 0.728 µM |  | 0.228 | 4.37 µM and 2.52 µM | 1.4 | 42.5 µM and > 100 µM | 0.217 µM and 1.9 µM | 9.66 µM and 2.69 µM and 17.2 µM | 4.14 |  |
| CC1=NCCc2c1[nH]c1cc(O)ccc21 |  |  |  | > 100 |  | > 100 µM |  |  |  | > 100 |  | > 100 µM |  | > 100 µM |  | > 100 µM | > 100 | > 100 |
| Cc1ccc2c(ccc3c[n+]4c5ccccc5ccc4n32)c1 | 1.47 | 16.7 µM | 0.437 | 5.78 | 4.11 | 25.1 µM | 0.946 | 10.4 µM | 0.297 µM | 2.5 | 8.25 | > 100 µM | 0.39 | 2.13 µM | 0.316 µM | 1.59 µM |  |  |
| N#CC(C(=O)/C(=N/NC(=O)c1ccccc1O)C(C#N)c1ccc(Cl)cc1)c1ccc(Cl)cc1 (stereo unspecified) |  |  |  | 25.5 |  | 31.3 µM |  |  |  | 26.4 |  |  |  | 32.2 µM |  | 25.5 µM | 69.7 | 25.1 |
| C=C1C(=O)O[C@H]2[C@H]1[C@H](OC(=O)/C(C)=C\C)CC(=C)[C@@H]1[C@H](O)[C@H]3O[C@@]3(C)[C@@]12O |  | > 100 µM |  |  |  | > 100 µM |  |  |  | > 100 |  | > 100 µM |  | > 100 µM |  | > 100 µM | > 100 | > 100 |
| COc1ccc(N2C(C)=C(C#N)C34C(=O)N(c5ccccc5)C(=O)C3=C(O)C=CC24O)cc1 (stereo unspecified) | 5.98 | 50.4 µM | 18.6 | 48.2 | 21.5 | 89 µM | 17.1 | 62.5 µM | 10 µM | 21.9 | 2.65 | 16.6 µM | 16.6 | 80.2 µM | 19.2 µM | 53.4 µM |  |  |
| Cc1ccc(-c2c(N)[n+]([O-])c3ccccc3[n+]2[O-])cc1 |  |  |  |  |  | 33 µM |  |  |  | 27.8 |  | 9.97 µM |  | 73.8 µM |  | 10.8 µM |  | 18.3 |
| COc1nc(NC2OCC(OC(C)=O)C(OC(C)=O)C2OC(C)=O)c(N=CC=Nc2c(NC3OCC(OC(C)=O)C(OC(C)=O)C3OC(C)=O)nc(OC)n(C)c2=O)c(=O)n1C (stereo unspecified) |  | > 100 µM |  | > 100 |  | > 100 µM |  |  |  | > 100 |  |  |  | > 100 µM |  | > 100 µM |  | > 100 |
| COC1(C(=O)N[C@@H](C)c2ccc(-n3cc(F)cn3)nc2)CCC(c2nc(C)cc(Nc3cc(C)[nH]n3)n2)CC1 (stereo partly specified) | 6.14 | > 100 µM | 0.147 | 0.7 | 1.96 | 8.97 µM | 3.66 | 32.7 µM | 0.581 µM | 12.4 | 0.889 | 2.23 µM | 0.811 | 8.04 µM | 5.87 µM | 21.7 µM |  |  |
| C[C@@H](C(=O)Nc1ccc(Cl)cc1)C1CCC(c2ccnc3ccc(F)cc23)CC1 (stereo partly specified) | 2.23 | 12.1 µM | 6.27 | 56.8 | 6.04 | 81.3 µM | 3.43 | > 100 µM | 8.23 µM | 44.4 | 6.23 | > 100 µM | 8.55 | 60.9 µM | 9.83 µM | 60 µM |  |  |
| CCN(Cc1ccc(F)c(F)c1)c1ccc(CO)c(Cl)c1 | 20.2 | 52.5 µM | 0.0353 | 0.153 | 0.102 | 0.303 µM | 12.3 | 27.4 µM | 11 µM | 23.9 | 3.92 | 27.5 µM | 15 | 32.4 µM | 17.2 µM | 33.3 µM |  |  |
| COc1c2c(c3c(c1CCC(=O)O)OC(C)(C)C=C3)OC(C)(C)C=C2 |  | > 100 µM |  | > 100 |  | > 100 µM |  | > 100 µM |  | > 100 |  | > 100 µM |  | > 100 µM |  | > 100 µM |  |  |
| CN1CCN(CCc2cccc(C(=O)c3cnn(-c4ccc(F)cc4)c3N)c2)CC1 | > 25 | > 25 µM | > 25 | > 25 | > 25 | > 25 µM | > 25 | > 25 µM | > 25 µM | > 25 | > 25 | > 25 µM | > 25 | > 25 µM | > 25 µM | > 25 µM |  |  |
